Values quoted from earlier work, collected in patent US20080021074A1, “Pharmaceutical Compositions and Related Methods of Treatment” (QUESTCOR PHARMACEUTICALS, INC., priority 2006, published 2008).
Where a name gives a salt, the structure may show the parent alone.

What was measured:
CYP2B6 = conditions: primary human hepatocyte cultures, concentration-dependent
CYP3A4 = conditions: primary human hepatocyte cultures, concentration-dependent
mice = conditions: single administration
CYP2C19 = CYP2C19 (Homo sapiens, UniProt P33261)
monkeys = conditions: single administration
CYP1A2 [1] = conditions: primary human hepatocyte cultures, concentration-dependent
CYP1A2 [2] = target: CYP1A2 (Homo sapiens, UniProt P05177); conditions: in vitro
spasticity = conditions: clinical studies
[3] = tizanidine and baclofen combined

Sequence of CYP2C19 (P33261 whole entry): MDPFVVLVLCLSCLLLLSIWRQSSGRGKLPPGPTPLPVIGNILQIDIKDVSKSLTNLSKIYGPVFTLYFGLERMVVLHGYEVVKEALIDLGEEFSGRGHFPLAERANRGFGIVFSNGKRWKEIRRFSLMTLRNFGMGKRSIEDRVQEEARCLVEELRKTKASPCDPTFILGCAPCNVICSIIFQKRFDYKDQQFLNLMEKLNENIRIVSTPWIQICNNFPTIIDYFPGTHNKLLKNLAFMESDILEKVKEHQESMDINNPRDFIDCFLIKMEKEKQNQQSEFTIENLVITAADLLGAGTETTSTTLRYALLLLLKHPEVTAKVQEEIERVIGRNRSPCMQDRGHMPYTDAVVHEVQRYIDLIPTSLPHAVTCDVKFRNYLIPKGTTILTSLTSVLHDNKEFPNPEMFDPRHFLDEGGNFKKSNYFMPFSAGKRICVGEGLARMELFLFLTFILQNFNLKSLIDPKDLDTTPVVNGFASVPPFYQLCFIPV
Sequence of CYP1A2 (Homo sapiens, UniProt P05177) (P05177 whole entry): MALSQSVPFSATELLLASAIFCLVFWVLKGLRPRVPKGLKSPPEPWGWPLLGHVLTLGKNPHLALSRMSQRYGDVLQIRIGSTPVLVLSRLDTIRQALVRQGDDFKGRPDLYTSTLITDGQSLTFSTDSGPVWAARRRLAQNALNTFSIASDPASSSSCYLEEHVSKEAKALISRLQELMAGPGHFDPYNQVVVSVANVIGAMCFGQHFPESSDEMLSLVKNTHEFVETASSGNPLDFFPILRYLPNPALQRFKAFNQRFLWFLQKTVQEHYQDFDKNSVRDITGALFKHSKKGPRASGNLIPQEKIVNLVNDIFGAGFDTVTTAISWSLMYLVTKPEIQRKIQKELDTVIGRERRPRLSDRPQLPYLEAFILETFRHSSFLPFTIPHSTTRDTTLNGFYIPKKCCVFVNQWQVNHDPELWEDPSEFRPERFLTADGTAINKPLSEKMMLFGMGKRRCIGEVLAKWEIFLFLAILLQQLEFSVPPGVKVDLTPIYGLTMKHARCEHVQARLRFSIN

NC(=O)C[S+]([O-])C(c1ccccc1)c1ccccc1 (stereo not drawn) [Modafinil, 2-[(diphenylmethyl)sulfinyl]acetamide]
induction of CYP2B6 (CYP2B6): slightly induce | induction of CYP3A4 (CYP3A4): slightly induce | locomotor activity (mice): increased locomotor activity | inhibition of CYP2C19 (CYP2C19): reversible inhibitors | nocturnal activity (monkeys): increased nocturnal activity | induction of CYP1A2 (CYP1A2 [1]): slightly induce

Clc1ccc2nsnc2c1NC1=NCCN1 [Tizanidine, 5-chloro-4-(2-imidazolin-2-ylamino)-2,1,3-benzothiodiazole hydrochloride]
metabolizing enzyme (CYP1A2 [2]): metabolized by CYP1A2 | antispastic effect compared with diazepam and baclofen (spasticity): as effective as other antispastic agents | tolerability compared with diazepam and baclofen (spasticity; especially incidence of debilitating muscle weakness): more favorable tolerability profile | pharmacokinetic interaction [3]: without significant pharmacokinetic interaction

NCC(CC(=O)O)c1ccc(Cl)cc1 (stereo not drawn) [baclofen, 4-amino-3-(4-chlorophenyl)-butanoic acid]
pharmacokinetic interaction [3]: without significant pharmacokinetic interaction

NC(=O)CS(=O)(=O)C(c1ccccc1)c1ccccc1 [modafinil sulfone]
inhibition of CYP2C19 (CYP2C19): reversible inhibitors
